Reference: US6013659A, “Methods of reducing tumor colony number using novel benzothiazole compounds” (University of Pittsburgh, priority 1998, dated 2000)
Like-named read-outs stand apart in the source and are kept apart here.

What was measured:
[1] = test system: B16 melanoma pulmonary metastases; conditions: 216 h
Experimental: A-NK cells were prepared from mouse spleens. All procedures were carried out in a laminar flow hood using sterile reagents and equipment. Briefly, a single cell suspension was prepared by gently mashing the spleens through a 40 mesh stainless steel screen into complete media (CM) which consisted of RPMI 1640 supplemented with 10% heat-inactivated fetal bovine serum, 100 U/ml penicillin, 100 μg/ml streptomycin sulfate, 50 μg/ml gentamicin sulfate, 2 mM L-glutamine, 5×10^-5 M 2-mercaptoethanol and 1% MEM non-essential amino acids. The erythrocytes in the resulting suspension were lysed and the suspension was centrifuged and washed twice with CM. Splencytes were cultured in T-150 flasks at 1.5×10^8 per cells per flask (A flasks) in 50 ml of CM containing 6000 IU rhIL-2/ml. After 2 days the media and the non-adherent cells from the A flasks were transferred into new T-150 flasks (25 ml per flask--B flasks) and fresh CM+IL-2 (25 ml) was placed in the A flasks. The next day (day 3) the non-adherent cells and media from the B flasks were transferred to an equal number of T-150 C flasks and fresh CM+IL-2 was placed on the B flasks. […]
On day 8, 3-4×10^7 A-NK cells plus 120,000 IU of IL-2 were adaptively transferred into tumor-bearing mice. […] On day 9, the mice were sacrificed, their lungs removed and the tumor colonies counted.

[2] = test system: B16 melanoma pulmonary metastases; experiment: Early B16 pulmonary metastasis model (Day 4 B16 Model), A-NK cell adoptive immunotherapy; assay type: in vivo, C57BL/6 mice; conditions: for effect on reduction of B16 melanoma pulmonary metastases mediated by A-NK cell adoptive immunotherapy: A-NK cells administered on day 4; for effect on anti-metastatic therapeutic effect of adoptively transferred A-NK cells: conclusion from the two examples; for significance of reduction in tumor burden (in words): compound B experiments (Table 2), three experiments
Experimental: The B16 F1 melanoma model system, herein after referred to as B16 melanoma model system, is recognized as being highly resistant to treatment with many standard clinically used anti-cancer agents. Therefore, it was selected for testing because it is known to be reflective of the clinical situation for advanced melanoma.
A-NK cells were prepared from mouse spleens. All procedures were carried out in a laminar flow hood using sterile reagents and equipment. Briefly, a single cell suspension was prepared by gently mashing the spleens through a 40 mesh stainless steel screen into complete media (CM) which consisted of RPMI 1640 supplemented with 10% heat-inactivated fetal bovine serum, 100 U/ml penicillin, 100 μg/ml streptomycin sulfate, 50 μg/ml gentamicin sulfate, 2 mM L-glutamine, 5×10^-5 M 2-mercaptoethanol and 1% MEM non-essential amino acids. The erythrocytes in the resulting suspension were lysed and the suspension was centrifuged and washed twice with CM. Splencytes were cultured in T-150 flasks at 1.5×10^8 per cells per flask (A flasks) in 50 ml of CM containing 6000 IU rhIL-2/ml. […] On day 6 the A-NK cells were harvested.
Referring to FIG. 1 which illustrated a flow diagram of procedures for tumor metastasis system, A-NK generation, therapy and analysis for arly B16 tumors used in the present invention. All experimental groups initially contained at least 7 animals. A-NK cell generation was started at day -2 and the culture was expanded on days 0 and 1 as described above.
Separately on day 0, B16 tumor cells (2×10^5 i.v.) were injected into C57BL/6 mice. On days 0, 1, 2, 3 and 4, a benzothiazole compound of formula I (100 mg/kg, p.o.) was administered to the mice. On day 3 some animals received cyclophosphamide (300 mg/kg., i.p.) which is a standard chemotherapeutic drug.
Control mice received injections of vehicle diluent (1% gum arabic). […] On day 10, the mice were sacrificed, their lungs removed and the rumor colonies counted.

[3] = Subacute toxicity study in mice; assay type: in vivo; conditions: 0-300 mg/kg p.o. for 5 consecutive days, in 1% gum arabic
Experimental: (§1) The compound B of the present invention has been tested for its pharmacokinetics and toxicity in mice. As shown in FIG. 3 peak levels of compound B occurred in the liver 1 h after p.o. administration of a single 100 mg/kg dose. […] Mice were dosed for 5 consecutive days with 0-300 mg/kg of compound B in 1% gum arabic (p.o.). Their weight was measured in 1 week intervals and at 4 weeks the animals were sacrificed and their organ weights measured.

in vivo = experiment: in vivo; parameters: species or system mice; conditions: mouse, po, 100 mg/kg
Experimental: as §1

Row | SMILES | reduction of tumor burden (average) [1] [%] | effect on reduction of B16 melanoma pulmonary metastases mediated by A-NK cell adoptive immunotherapy [2] | reduction of tumor burden (average) ([2]; A-NK cells on day 4, compound A in combination with A-NK cells) [%] | Number of Pulmonary Metastases (± standard deviation) ([2]; Table 1, experiment 1, Compound A + A-NK Cells (with IL-2), 100 mg/kg p.o. days 0-4, control 59 ± 41, *p < 0.05 vs. control) | Number of Pulmonary Metastases (± standard deviation) ([2]; Table 1, experiment 2, Compound A + A-NK Cells (with IL-2), 100 mg/kg p.o. days 0-4, control 32 ± 22, *p < 0.05 vs. control) | Number of Pulmonary Metastases (± standard deviation) ([2]; Table 1, experiment 3, Compound A + A-NK Cells (with IL-2), 100 mg/kg p.o. days 0-4, control 222 ± 74, **p < 0.02 vs. control) | effect on anti-metastatic therapeutic effect of adoptively transferred A-NK cells [2] | Number of Pulmonary Metastases (± standard deviation) ([2]; Table 1, experiment 1, given without compound A) | Number of Pulmonary Metastases (± standard deviation) ([2]; Table 1, experiment 2, given without compound A) | Number of Pulmonary Metastases (± standard deviation) ([2]; Table 1, experiment 3, given without compound A, cyclophosphamide *p < 0.05 vs. control) | Number of Pulmonary Metastases (± standard deviation) ([2]; Table 2, experiment 1, given without compound B) | Number of Pulmonary Metastases (± standard deviation) ([2]; Table 2, experiment 2, given without compound B) | Number of Pulmonary Metastases (± standard deviation) ([2]; Table 2, experiment 3, given without compound B) | significance of reduction in tumor burden (in words) [2] | organ weight change ([3]; at 4 weeks) | body weight change ([3]; weekly weights to 4 weeks) | Number of Pulmonary Metastases (± standard deviation) ([2]; Table 2, experiment 1, Compound B + A-NK Cells (with IL-2), 100 mg/kg p.o. days 0-4, control 125 ± 66, *p < 0.05 vs. control) | Number of Pulmonary Metastases (± standard deviation) ([2]; Table 2, experiment 2, Compound B + A-NK Cells (with IL-2), 100 mg/kg p.o. days 0-4, control 187 ± 114, *p < 0.05 vs. control) | Number of Pulmonary Metastases (± standard deviation) ([2]; Table 2, experiment 3, Compound B + A-NK Cells (with IL-2), 100 mg/kg p.o. days 0-4, control 199 ± 45, **p < 0.001 vs. control) | Tmax (in vivo) [h]
1 | COc1cccc2sc(-c3ccc(C(C)(C)C)cc3)nc12 [Compound A, 4-Methoxy-2-(4-t-butylphenyl)benzothiazole] | 38 | enhanced the reduction | 64 | 24 ± 19 | 13 ± 7 | 58 ± 35 | augment the anti-metastatic therapeutic effect | – | – | – | – | – | – | – | – | – | – | – | – | –
2 | O=P1(N(CCCl)CCCl)NCCCO1 (centres unmarked) [Cyclophosphamide, cyclophosphamide, reference compound] | – | – | – | – | – | – | – | 33 ± 25 | 18 ± 12 | 81 ± 60 | 135 ± 55 | 156 ± 120 | 272 ± 110 | neither A-NK cells alone or cyclophosphamide yielded a significant reduction in tumor burden | – | – | – | – | – | –
3 | COc1cccc2sc(-c3ccc(C(F)(F)F)cc3)nc12 [Compound B, 4-Methoxy-2-(4-trifluoromethylphenyl) benzothiazole] | – | enhanced the reduction | – | – | – | – | augment the anti-metastatic therapeutic effect | – | – | – | – | – | – | Significant reduction in tumor burden | no significant difference | no significant difference | 66 ± 39 | 88 ± 49 | 88 ± 60 | 1
